Data reported in US12171229B2, “Heteroaryl-triazole and heteroaryl-tetrazole compounds as pesticides” (BAYER AKTIENGESELLSCHAFT, priority 2018, dated 2024).

Key:
Assay type in all cases: in vivo
Boophilus microplus = Boophilus microplus injection test; details: Rhipicephalus microplus, 168 h; 20 μg/animal injected into the abdomen; adult engorged female ticks; egg deposition after 7 days; read-out: efficacy (infertile eggs)
Experimental: Boophilus Microplus—Injection Test Solvent: dimethyl sulfoxide To produce a suitable preparation of active compound, 10 mg of active compound are dissolved in 0.5 ml solvent, and the concentrate is diluted with solvent to the desired concentration. Five adult engorged female ticks (Boophilus microplus) are injected with 1 μl compound solution into the abdomen. The ticks are transferred into replica plates and incubated in a climate chamber. After 7 days egg deposition of fertile eggs is monitored. Eggs where fertility is not visible are stored in a climate chamber till hatching after about 42 days. An efficacy of 100% means all eggs are infertile; 0% means all eggs are fertile.

Diabrotica balteata = Diabrotica balteata spray test; details: Diabrotica balteata, in Triticum aestivum, 168 h, after 7 days, larvae on wheat seeds, read-out: efficacy (seedlings grown up); for pest or weed control at 80 µg/disc, 250 g/ha: 80 μg/well (=250 g/ha); for pest or weed control at 160 µg/disc, 500 g/ha: 160 μg/well (=500 g/ha)
Experimental: Diabrotica balteata—Spray Test [table] To produce a suitable preparation of active compound, 1 part by weight of active compound is mixed with the stated amount of solvent, and the concentrate is diluted with water, containing an emulsifier concentration of 1000 ppm, to the desired concentration. Further test concentrations are prepared by dilution with emulsifier containing water. Soaked wheat seeds (Triticum aestivum) are placed in a multiple well plate filled with agar and some water and are incubated for 1 day to germinate (5 seeds per well). The germinated wheat seeds are sprayed with a test solution containing the desired concentration of the active ingredient. Afterwards each unit is infected with 10-20 larvae of the banded cucumber beetle (Diabrotica balteata). After 7 days efficacy in % is determined. 100% means all the seedlings have grown up like in the untreated, uninfected control; 0% means none of the seedlings have grown.

Spodoptera frugiperda = Spodoptera frugiperda spray test; details: 168 h, after 7 days, larvae on maize leaf sections
Experimental: Spodoptera frugiperda—Spray Test
(§1) To produce a suitable preparation of active compound, 1 part by weight of active compound is mixed with the stated amount of solvents and is diluted with water, containing an emulsifier concentration of 1000 ppm, to the desired concentration. Further test concentrations are prepared by dilution with emulsifier containing water.
Maize (Zea mays) leaf sections are sprayed with a preparation of the active ingredient of the desired concentration. Once dry, the leaf sections are infested with fall armyworm larvae (Spodoptera frugiperda).
After 7 days mortality in % is determined. 100% means all caterpillars have been killed and 0% means none of the caterpillars have been killed.

Ctenocephalides felis = Ctenocephalides felis oral test; details: 48 h, 100 ppm in cattle blood, after 2 days, adult unfed cat fleas
Experimental: Ctenocephalides Felis—Oral Test
Solvent: dimethyl sulfoxide
To produce a suitable preparation of active compound, 10 mg of active compound are dissolved in 0.5 ml solvent, and the concentrate is diluted with cattle blood to the desired concentration.
Approximately 20 adult unfed cat fleas (Ctenocephalides felis) are placed in flea chambers. The blood chamber, sealed with parafilm on the bottom, are filled with cattle blood supplied with compound solution and placed on the gauze covered top of the flea chamber, so that the fleas are able to suck the blood. The blood chamber is heated to 37° C. whereas the flea chamber is kept at room temperature.
After 2 days mortality in % is determined. 100% means all the fleas have been killed; 0% means none of the fleas have been killed.

Nezara viridula = Nezara viridula spray test; details: 96 h, 500 g/ha, after 4 days, larvae on barley plants
Experimental: Nezara viridula—Spray Test
as §1, with “solvent,” for “solvents”, “and the concentrate” for “and”
Barley plants (Hordeum vulgare) infested with larvae of the southern green stink bug (Nezara viridula) are sprayed with a test solution containing the desired concentration of the active ingredient.
After 4 days mortality in % is determined. 100% means all the stink bugs have been killed: 0% means none of the stink bugs have been killed.

| Structure (SMILES) | pest or weed control at 0.02 mg (Boophilus microplus) [%] | pest or weed control at 80 µg/disc, 250 g/ha (Diabrotica balteata) [%] | pest or weed control at 160 µg/disc, 500 g/ha (Diabrotica balteata) [%] | mortality at 100 g/ha (Spodoptera frugiperda) [%] | mortality at 500 g/ha (Spodoptera frugiperda) [%] | mortality at 100 ppm (Ctenocephalides felis) [%] | mortality at 500 g/ha (Nezara viridula) [%] |
| --- | --- | --- | --- | --- | --- | --- | --- |
| C[C@H](NC(=O)c1cc(Cl)cc(C(F)(F)F)c1)c1ncnn1-c1cccc(S(C)(=O)=O)n1 [Example I-064] | 80 | – | – | – | – | – | – |
| CC[C@H](NC(=O)c1cc(C(F)(F)F)cc(C(F)(F)F)c1)c1ncnn1-c1ccc(C#N)cn1 [Example I-068] | 100 | 100 | 100 | 100 | 100 | – | – |
| CC(NC(=O)c1cc(Cl)cc(C(F)(F)F)c1)c1ncnn1C1=NCCS1 (centres unmarked) [Example I-075] | – | 100 | 100 | – | – | 100 | – |
| C[C@H](NC(=O)c1cc(Cl)cc(C(F)(F)F)c1)c1ncnn1-c1nc(C(F)(F)F)cs1 [Example I-084] | – | 100 | 100 | – | – | – | – |
| C[C@H](NC(=O)c1cc(Cl)cc(C(F)(F)F)c1)c1ncnn1-c1ccc(-n2ccnc2)cn1 [Example I-086] | – | 100 | – | – | 83 | 100 | – |
| C[C@H](NC(=O)c1cc(Cl)cc(C(F)(F)F)c1)c1ncnn1-c1ccc(-n2cncn2)cn1 [Example I-087] | – | – | – | 100 | 100 | – | – |
| C[C@H](NC(=O)c1cc(Cl)cc(C(F)(F)F)c1)c1ncnn1-c1ncc(Cl)s1 [Example I-090] | – | 100 | 100 | 100 | 100 | 100 | 100 |
| COc1cc(C(=O)N[C@@H](C)c2ncnn2-c2ccc(C#N)cn2)cc(C(F)(F)F)c1 [Example I-092] | – | 100 | 100 | 100 | 100 | 100 | 90 |
| COc1cc(C(=O)N[C@@H](C)c2ncnn2-c2nccs2)cc(C(F)(F)F)c1 [Example I-093] | – | 100 | 100 | – | 100 | 100 | 100 |
| CC[C@H](NC(=O)c1cc(Cl)cc(OC(F)(F)F)c1)c1ncnn1-c1ccc(NC(C)=O)cn1 [Example I-095] | – | – | – | – | – | 100 | – |
| CC[C@H](NC(=O)c1cc(Cl)cc(OC(F)(F)F)c1)c1ncnn1-c1ccc(NC(=O)C2CC2)cn1 [Example I-096] | – | 100 | 100 | – | – | 100 | – |
| C[C@H](NC(=O)c1cc(Cl)cc(C(F)(F)F)c1)c1ncnn1-c1ccc(NC(=S)CC2CC2)cn1 [Example I-097] | – | 100 | 100 | – | 100 | 100 | – |
| CC(C)C(=S)Nc1ccc(-n2ncnc2[C@H](C)NC(=O)c2cc(Cl)cc(C(F)(F)F)c2)nc1 [Example I-099] | – | 100 | 100 | – | 100 | 100 | – |
| COc1cc(C(=O)N[C@@H](C)c2ncnn2-c2ncc(F)cc2F)cc(C(F)(F)F)c1 [Example I-102] | – | 100 | – | – | – | – | 100 |
| C[C@H](NC(=O)c1cc(Cl)cc(Cl)c1)c1ncnn1-c1nccs1 [Example I-108] | – | – | 100 | – | 83 | – | – |
| C[C@H](NC(=O)c1cc(Cl)cc(OC(F)(F)F)c1)c1ncnn1-c1ccc(NC(=O)C2(Cl)CC2)cn1 [Example I-113] | – | – | 80 | 80 | 100 | – | 100 |
